Test system: P12-Ichikawa
Assay: cell viability relative to DMSO control; higher = less cytotoxic
Conditions: 48 h
Outline: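 Cells were incubated for 48 h at 37°C before CellTiter-Glo One luminescence was read. The cells were NOMO1 or SEM (500 cells/well) or P12-Ichikawa (1000 cells/well) leukemia cells, adapted for at least four passages in each medium and seeded in 1536-well plates (5 μl). Dosing used library compounds in DMSO applied by pin over 11 threefold points, 47 μM to 0.79 nM. Viability is the per-plate percentage of DMSO wells, with cell-free wells as background.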

[1] = HPLM + 10% dialyzed FBS, 0.000781 µM
[2] = HPLM + 10% dialyzed FBS, 0.00234 µM
[3] = HPLM + 10% dialyzed FBS, 0.00702 µM
[4] = HPLM + 10% dialyzed FBS, 0.0211 µM
[5] = HPLM + 10% dialyzed FBS, 0.0632 µM
[6] = HPLM + 10% dialyzed FBS, 0.19 µM
[7] = HPLM + 10% dialyzed FBS, 0.569 µM
[8] = HPLM + 10% dialyzed FBS, 1.71 µM
[9] = HPLM + 10% dialyzed FBS, 5.12 µM
[10] = HPLM + 10% dialyzed FBS, 15.4 µM
[11] = HPLM + 10% dialyzed FBS, 46.1 µM
[12] = RPMI 5 mM glucose + 10% FBS, 0.000781 µM
[13] = RPMI 5 mM glucose + 10% FBS, 0.00234 µM
[14] = RPMI 5 mM glucose + 10% FBS, 0.00702 µM
[15] = RPMI 5 mM glucose + 10% FBS, 0.0211 µM
[16] = RPMI 5 mM glucose + 10% FBS, 0.0632 µM
[17] = RPMI 5 mM glucose + 10% FBS, 0.19 µM
[18] = RPMI 5 mM glucose + 10% FBS, 0.569 µM
[19] = RPMI 5 mM glucose + 10% FBS, 1.71 µM
[20] = RPMI 5 mM glucose + 10% FBS, 5.12 µM
[21] = RPMI 5 mM glucose + 10% FBS, 15.4 µM
[22] = RPMI 5 mM glucose + 10% FBS, 46.1 µM
[23] = RPMI 5 mM glucose + 10% dialyzed FBS, 0.000781 µM
[24] = RPMI 5 mM glucose + 10% dialyzed FBS, 0.00234 µM
[25] = RPMI 5 mM glucose + 10% dialyzed FBS, 0.00702 µM
[26] = RPMI 5 mM glucose + 10% dialyzed FBS, 0.0211 µM
[27] = RPMI 5 mM glucose + 10% dialyzed FBS, 0.0632 µM
[28] = RPMI 5 mM glucose + 10% dialyzed FBS, 0.19 µM
[29] = RPMI 5 mM glucose + 10% dialyzed FBS, 0.569 µM
[30] = RPMI 5 mM glucose + 10% dialyzed FBS, 1.71 µM
[31] = RPMI 5 mM glucose + 10% dialyzed FBS, 5.12 µM
[32] = RPMI 5 mM glucose + 10% dialyzed FBS, 15.4 µM
[33] = RPMI 5 mM glucose + 10% dialyzed FBS, 46.1 µM

SMILES: C/C=C1\NC(=O)[C@H]2CSSCC/C=C\[C@H](CC(=O)N[C@H](C(C)C)C(=O)N2)OC(=O)[C@H](C(C)C)NC1=O
- cell viability [1]: 109%
- cell viability [2]: 102%
- cell viability [3]: 104%
- cell viability [4]: 106%
- cell viability [5]: 2.7%
- cell viability [6]: 2.94%
- cell viability [7]: 2.82%
- cell viability [8]: 2.88%
- cell viability [9]: 4.38%
- cell viability [10]: 1.48%
- cell viability [11]: 2.87%
- cell viability [12]: 97.9%
- cell viability [13]: 110%
- cell viability [14]: 111%
- cell viability [15]: 110%
- cell viability [16]: 2.34%
- cell viability [17]: 2.68%
- cell viability [18]: 2.61%
- cell viability [19]: 2.36%
- cell viability [20]: 3.14%
- cell viability [21]: 1.58%
- cell viability [22]: 2.72%
- cell viability [23]: 98.9%
- cell viability [24]: 106%
- cell viability [25]: 108%
- cell viability [26]: 107%
- cell viability [27]: 3.38%
- cell viability [28]: 3.46%
- cell viability [29]: 3.34%
- cell viability [30]: 2.6%
- cell viability [31]: 3.15%
- cell viability [32]: 3.95%
- cell viability [33]: 2.58%

SMILES: CC(C)NCC(O)COc1ccc(COCCOC(C)C)cc1 (centres undefined)
- cell viability [1]: 115%
- cell viability [2]: 117%
- cell viability [3]: 105%
- cell viability [4]: 103%
- cell viability [5]: 113%
- cell viability [6]: 118%
- cell viability [7]: 112%
- cell viability [8]: 96.5%
- cell viability [9]: 92.6%
- cell viability [10]: 107%
- cell viability [11]: 99.5%
- cell viability [12]: 113%
- cell viability [13]: 121%
- cell viability [14]: 120%
- cell viability [15]: 120%
- cell viability [16]: 131%
- cell viability [17]: 124%
- cell viability [18]: 115%
- cell viability [19]: 110%
- cell viability [20]: 110%
- cell viability [21]: 116%
- cell viability [22]: 115%
- cell viability [23]: 113%
- cell viability [24]: 106%
- cell viability [25]: 107%
- cell viability [26]: 111%
- cell viability [27]: 114%
- cell viability [28]: 104%
- cell viability [29]: 105%
- cell viability [30]: 104%
- cell viability [31]: 104%
- cell viability [32]: 104%
- cell viability [33]: 104%

SMILES: CC1(C)O[C@@H]2C[C@H]3[C@@H]4CCC5=CC(=O)C=C[C@]5(C)[C@@]4(F)[C@@H](O)C[C@]3(C)[C@]2(C(=O)CO)O1
- cell viability [1]: 101%
- cell viability [2]: 105%
- cell viability [3]: 104%
- cell viability [4]: 100%
- cell viability [5]: 86.2%
- cell viability [6]: 76.7%
- cell viability [7]: 55.6%
- cell viability [8]: 63.2%
- cell viability [9]: 39.4%
- cell viability [10]: 18.5%
- cell viability [11]: 8.39%
- cell viability [12]: 111%
- cell viability [13]: 115%
- cell viability [14]: 108%
- cell viability [15]: 115%
- cell viability [16]: 76.5%
- cell viability [17]: 70.2%
- cell viability [18]: 55.3%
- cell viability [19]: 55.9%
- cell viability [20]: 40%
- cell viability [21]: 17.9%
- cell viability [22]: 7.85%
- cell viability [23]: 99.5%
- cell viability [24]: 108%
- cell viability [25]: 100%
- cell viability [26]: 93.2%
- cell viability [27]: 77.6%
- cell viability [28]: 57.9%
- cell viability [29]: 47.4%
- cell viability [30]: 52.6%
- cell viability [31]: 34%
- cell viability [32]: 30.1%
- cell viability [33]: 9.61%

Source: the supplement of paper PMC11451515
